# Source: US9045524B2, “Selective caspase inhibitors and uses thereof” (NOVAGENESIS FOUNDATION, priority 2009, dated 2015)
# How the values were obtained:
# [1] = test system: EAE in C57BL/6 mice; assay: Chronic EAE mouse model (MOG35-55 immunization), daily clinical score and body weight; format: in vivo; set-up: key to Delay in onset of the disease / Reduction in severity of the disease / Reduction in body weight loss: +++: high level improvement; ++: moderate improvement; +: small improvement; −: no improvement
# How it was run: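 Female C57BL/6 mice, 7–8 weeks old, were immunized s.c. with 100 μg MOG35-55 in CFA containing M. tuberculosis H37Ra, plus 200 ng pertussis toxin i.p. on days 0 and 2. […], compound in 2.5% DMSO/PBS was given i.p.; vehicle for placebo. Clinical score (0–5) and body weight were recorded daily.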
# [2] = biological target: Caspase-4 (Homo sapiens (Human), UniProt P49662); assay: Fluorometric enzymatic assay, active recombinant Caspase-4
# Caspase-4, sequence (P49662 81-270): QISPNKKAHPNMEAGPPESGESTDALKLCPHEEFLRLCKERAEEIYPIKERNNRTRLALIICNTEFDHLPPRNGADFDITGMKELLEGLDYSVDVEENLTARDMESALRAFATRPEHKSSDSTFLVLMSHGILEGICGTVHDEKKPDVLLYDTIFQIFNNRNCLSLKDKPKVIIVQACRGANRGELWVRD
# Caspase-4, sequence (P49662 290-377): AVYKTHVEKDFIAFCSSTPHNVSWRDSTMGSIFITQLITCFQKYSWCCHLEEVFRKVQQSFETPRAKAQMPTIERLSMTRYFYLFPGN
# Protocol: Each dilution of the test compounds was tested in duplicates, whereas the DMSO or Z-VAD-FMK controls were tested in triplicates. […] The inhibition efficiency and the IC50 values of the test compounds were then determined by comparing the fluorescence intensity (FI) of the test compounds with that of the DMSO control.
# The SoftMax Pro Software™ (v5.2 rev C, Molecular Devices) was used for data analysis. The % Inhibition is calculated by: % Inhibition=[FI(DMSO)−FI(test sample)/FI(DMSO)]×100. The % Inhibition vs. Log(concentration) was plotted, and the curve was fitted using the 5-parameter fit of the software.
# [3] = FIG. 1, i.p. from day 10 to 16 post immunization, versus placebo
# [4] = FIG. 3, i.p. from day 14 to 19 post immunization, versus placebo
# [5] = FIG. 4, administration for 15 days from day 12 post-immunization, versus placebo
# [6] = average overall effects on the EAE model, i.p.
smiles,measurement,setting,value
"CC(C)[C@H](NC(=O)[C@@H](NC(=O)[C@H](CC(=O)O)NC(=O)OCc1ccccc1)c1ccccc1)C(=O)N[C@H](/C=C/S(C)(=O)=O)CC(=O)O [Compound 53, Z-Asp-Phg-Val-Aspmethyl vinyl sulfone]",Cumulative clinical score,[1]; [3],significantly lower compared to placebo
same,Disease onset,[1]; [3],delayed
same,Loss of body weight,[1]; [3],less than the placebo
same,clinical severity of the disease,[1]; [3],reduced significantly
same,maximal clinical score,[1]; [3],significantly lower compared to placebo
same,delay of the clinical score (symptoms of EAE),"[1]; FIG. 3, i.p. from day 14 to 19 post immunization, twice the concentration of compound 53",delayed significantly the clinical score
same,Loss of body weight,[1]; [4],less than in the placebo group
same,effects on the clinical course of EAE,[1]; [4],ameliorating effects
same,Loss of body weight,[1]; [5],less than placebo
same,severity of the disease,[1]; [5],began to reverse the effects of the disease and reduced the severity of the disease continuously
same,Delay in onset of the disease,[1]; [6],+++
same,Reduction in body weight loss,[1]; [6],+++
same,Reduction in severity of the disease,[1]; [6],+++
same,inhibitory activity towards Caspase-4,[2]; FIG. 5,inhibitory activity
same,IC50,"[2]; read-out: IC50 values (μM) Caspase-4, 10-point titration 0.1 nM to 3.3 μM, 30-minute incubation at 37° C.",2.8 µM
